Data from patent publication US6642276B2, “Controlled release macrolide pharmaceutical formulations” (M/S Ind-Swift Limited, priority 2001, dated 2003).

Experiments:
Type in all cases: physicochemical
[1] = pH of 0.2% suspension in water: methanol (19:1)
[2] = pH solubility studies (mg of drug dissolved per ml of buffer)
[3] = Stability studies of bulk drug, physical mixture and citrate salt on storage

- pH of 0.2% suspension in water: methanol (19:1) [1]: 7.5 to 10.0
- pH solubility studies (mg of Clarithromycin dissolved per ml of buffer) ([2]; pH 3.0 (KCl Buffer)): 2.00 mg/ml
- pH solubility studies (mg of Clarithromycin dissolved per ml of buffer) ([2]; pH 4.0 (KCl Buffer)): 0.33 mg/ml
- pH solubility studies (mg of Clarithromycin dissolved per ml of buffer) ([2]; pH 5.0 (Phosphate Buffer)): 10.09 mg/ml
- pH solubility studies (mg of Clarithromycin dissolved per ml of buffer) ([2]; pH 6.0 (Phosphate Buffer)): 7.46 mg/ml
- pH solubility studies (mg of Clarithromycin dissolved per ml of buffer) ([2]; pH 7.0 (Phosphate Buffer)): 2.00 mg/ml
- Stability Studies: change / Degradation of Clarithromycin ([3]; 40° C. and 75% RH-2 Months): No Change/No
- Stability Studies: change / Degradation of Clarithromycin ([3]; 40° C. and 75% RH-3 Months): No Change/No
- Stability Studies: change / Degradation of Clarithromycin ([3]; 40° C. and 75% RH-4 Months): No Change/No
- Stability Studies: change / Degradation of Clarithromycin ([3]; 40° C. and 75% RH-5 Months): No Change/No
- Stability Studies: change / Degradation of Clarithromycin ([3]; 60° C.-1 month): No Change/No
- Stability Studies: change / Degradation of Clarithromycin ([3]; 60° C.-2 months): No Change/No
- Stability Studies: change / Degradation of Clarithromycin ([3]; 60° C.-3 months): No Change/No
- Stability Studies: change / Degradation of Clarithromycin ([3]; 85° C.-1 day): No Change/No
- Stability Studies: change / Degradation of Clarithromycin ([3]; 85° C.-4 days): No Change/No
- Stability Studies: change / Degradation of Clarithromycin ([3]; 85° C.-7 days): No Change/No
- Stability Studies: change / Degradation of Clarithromycin ([3]; 85°-15 days): No Change/No
- Stability Studies: change / Degradation of Clarithromycin ([3]; RT-3 Months): No Change/No
- Stability Studies: change / Degradation of Clarithromycin ([3]; RT-6 Months): No Change/No
- Stability Studies: change / Degradation of Clarithromycin ([3]; RT-9 Months): No Change/No
- Stability Studies: change / Degradation of Clarithromycin ([3]; RT-12 Months): No Change/No
Compound: CC[C@H]1OC(=O)[C@H](C)[C@@H](O[C@H]2C[C@@](C)(OC)[C@@H](O)[C@H](C)O2)[C@H](C)[C@@H](O[C@@H]2O[C@H](C)C[C@H](N(C)C)[C@H]2O)[C@](C)(OC)C[C@@H](C)C(=O)[C@H](C)[C@@H](O)[C@]1(C)O [Clarithromycin, 6-O-methylerythromycinA]
